Test results published in ChEMBL document CHEMBL1131391, “Identification and characterization of m4 selective muscarinic antagonists” (Bioorg Med Chem Lett, 1998).

What was measured:
[1] = target: T1, Muscarinic acetylcholine receptor M3 (Homo sapiens, UniProt P20309); assay: Evaluated for its binding affinity at human muscarinic receptor m3 by the displacement of [3H]NMS binding using membranes from transfected chinese hamster ovarian cell; assay type: cell-based
Target sequence in this assay (P20309 whole entry): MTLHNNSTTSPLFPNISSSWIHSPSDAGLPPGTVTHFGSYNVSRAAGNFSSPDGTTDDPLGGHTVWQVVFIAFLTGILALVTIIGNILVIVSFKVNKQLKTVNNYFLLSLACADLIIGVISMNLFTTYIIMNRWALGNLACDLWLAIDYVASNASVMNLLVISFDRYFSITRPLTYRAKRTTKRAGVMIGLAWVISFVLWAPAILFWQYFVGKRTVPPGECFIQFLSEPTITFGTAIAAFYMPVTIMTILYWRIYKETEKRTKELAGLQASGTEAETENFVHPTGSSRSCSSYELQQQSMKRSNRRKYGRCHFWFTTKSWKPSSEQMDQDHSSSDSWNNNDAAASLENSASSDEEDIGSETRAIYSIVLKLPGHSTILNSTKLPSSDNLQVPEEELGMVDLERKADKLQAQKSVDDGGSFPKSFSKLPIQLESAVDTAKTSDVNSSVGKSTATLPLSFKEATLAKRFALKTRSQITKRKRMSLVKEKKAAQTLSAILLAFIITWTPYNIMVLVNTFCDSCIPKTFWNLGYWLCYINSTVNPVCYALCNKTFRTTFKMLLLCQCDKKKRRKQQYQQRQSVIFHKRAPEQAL

[2] = target: T2, Muscarinic acetylcholine receptor M5 (Homo sapiens, UniProt P08912); assay: Evaluated for its binding affinity at human muscarinic receptor m5 by the displacement of [3H]NMS binding using membranes from transfected chinese hamster ovarian cell
T2 sequence (P08912 whole entry): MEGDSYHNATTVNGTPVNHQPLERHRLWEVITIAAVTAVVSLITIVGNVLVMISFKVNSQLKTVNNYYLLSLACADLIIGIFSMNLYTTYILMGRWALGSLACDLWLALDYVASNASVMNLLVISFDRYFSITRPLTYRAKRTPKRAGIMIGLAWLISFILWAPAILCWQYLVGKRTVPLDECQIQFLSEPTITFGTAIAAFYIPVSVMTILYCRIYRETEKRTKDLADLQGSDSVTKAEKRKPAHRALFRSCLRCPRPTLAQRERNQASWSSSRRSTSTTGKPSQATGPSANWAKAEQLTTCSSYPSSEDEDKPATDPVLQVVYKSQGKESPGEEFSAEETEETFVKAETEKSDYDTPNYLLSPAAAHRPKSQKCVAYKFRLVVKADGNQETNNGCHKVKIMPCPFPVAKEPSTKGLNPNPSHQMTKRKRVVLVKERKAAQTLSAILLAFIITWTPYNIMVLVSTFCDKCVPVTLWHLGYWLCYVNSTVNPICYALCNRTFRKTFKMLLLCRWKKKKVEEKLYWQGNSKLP

[3] = target: T3, Muscarinic acetylcholine receptor M4 (Homo sapiens, UniProt P08173); assay: Evaluated for its binding affinity at human muscarinic receptor m4 by the displacement of [3H]NMS binding using membranes from transfected chinese hamster ovarian cell
T3 sequence (P08173 whole entry): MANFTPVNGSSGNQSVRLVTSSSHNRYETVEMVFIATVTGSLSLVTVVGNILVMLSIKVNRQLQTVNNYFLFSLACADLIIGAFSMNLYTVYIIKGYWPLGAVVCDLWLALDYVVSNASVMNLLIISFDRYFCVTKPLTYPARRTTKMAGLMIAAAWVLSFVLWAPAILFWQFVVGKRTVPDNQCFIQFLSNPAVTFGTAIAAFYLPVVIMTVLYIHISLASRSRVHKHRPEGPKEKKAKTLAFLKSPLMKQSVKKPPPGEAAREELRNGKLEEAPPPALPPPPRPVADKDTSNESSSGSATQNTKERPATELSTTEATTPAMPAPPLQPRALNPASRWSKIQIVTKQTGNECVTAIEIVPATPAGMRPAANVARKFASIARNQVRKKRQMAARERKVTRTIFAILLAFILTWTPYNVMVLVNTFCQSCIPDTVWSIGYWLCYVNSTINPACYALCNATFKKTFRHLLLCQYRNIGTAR

[4] = target: T4, Muscarinic acetylcholine receptor M1 (Homo sapiens, UniProt P11229); assay: Evaluated for its binding affinity at human muscarinic receptor m1 by displacement of [3H]NMS binding using membranes in transfected chinese hamster ovarian cell; assay type: cell-based
T4 sequence (P11229 whole entry): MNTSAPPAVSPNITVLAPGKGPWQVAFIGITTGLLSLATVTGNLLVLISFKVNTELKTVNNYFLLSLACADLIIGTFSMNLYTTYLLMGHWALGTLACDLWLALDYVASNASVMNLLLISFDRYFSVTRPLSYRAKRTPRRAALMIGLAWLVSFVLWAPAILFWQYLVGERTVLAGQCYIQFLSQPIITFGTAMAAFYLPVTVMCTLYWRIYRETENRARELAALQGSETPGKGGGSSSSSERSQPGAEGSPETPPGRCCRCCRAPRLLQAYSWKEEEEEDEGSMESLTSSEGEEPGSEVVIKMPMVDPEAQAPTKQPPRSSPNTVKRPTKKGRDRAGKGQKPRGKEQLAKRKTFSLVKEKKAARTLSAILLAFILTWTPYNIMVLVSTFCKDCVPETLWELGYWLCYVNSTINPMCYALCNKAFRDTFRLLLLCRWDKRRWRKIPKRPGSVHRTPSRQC

[5] = target: T5, Muscarinic acetylcholine receptor M2 (Homo sapiens, UniProt P08172); assay: Evaluated for its binding affinity at human muscarinic receptor m2 by displacement of [3H]NMS binding using membranes from transfected chinese hamster ovarian cell
T5 sequence (P08172 whole entry): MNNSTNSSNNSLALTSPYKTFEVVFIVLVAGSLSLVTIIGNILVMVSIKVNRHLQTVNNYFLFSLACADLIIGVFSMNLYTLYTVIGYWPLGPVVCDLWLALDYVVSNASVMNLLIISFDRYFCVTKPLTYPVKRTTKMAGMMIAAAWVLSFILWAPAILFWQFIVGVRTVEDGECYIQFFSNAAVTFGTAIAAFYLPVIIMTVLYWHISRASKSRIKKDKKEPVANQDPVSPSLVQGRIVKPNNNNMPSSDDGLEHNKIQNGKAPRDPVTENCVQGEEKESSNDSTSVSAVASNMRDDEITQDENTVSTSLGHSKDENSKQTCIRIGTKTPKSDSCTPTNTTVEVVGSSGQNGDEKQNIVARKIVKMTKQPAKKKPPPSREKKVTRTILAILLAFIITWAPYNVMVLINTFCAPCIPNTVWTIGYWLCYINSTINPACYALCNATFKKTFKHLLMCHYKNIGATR

[6] = target: T6, Muscarinic acetylcholine receptor M4 (Homo sapiens) (UniProt P08173); assay: Compound was evaluated for its binding affinity at human muscarinic receptor Hm4 by the displacement of [3H]-NMS radioligand using membranes from transfected chinese hamster ovarian cell at 1000 nM concentration
T6 sequence (whole entry): T3 sequence (P08173 whole entry)

[7] = target: T1, Muscarinic acetylcholine receptor M3; assay: Compound was evaluated for its binding affinity at human muscarinic receptor Hm3 by the displacement of [3H]NMS radioligand using membranes from transfected chinese hamster ovarian cell at 100 nM concentration
Target sequence in this assay (P20309 whole entry, looked up): as the sequence (P20309 whole entry) above

[8] = target: T7, Muscarinic acetylcholine receptor M2 (Homo sapiens) (UniProt P08172); assay: Compound was evaluated for its binding affinity at human muscarinic receptor m2 by the displacement of [3H]NMS radioligand using membranes from transfected chinese hamster ovarian cell at 1000 nM concentration
T7 sequence (whole entry): T5 sequence (P08172 whole entry)

[9] = target: T6, Muscarinic acetylcholine receptor M4 (Homo sapiens); assay: Compound was evaluated for its binding affinity at human muscarinic receptor Hm4 by the displacement of [3H]NMS radioligand using membranes from transfected chinese hamster ovarian cell at 100 nM concentration
[10] = target: T7, Muscarinic acetylcholine receptor M2 (Homo sapiens); assay: Compound was evaluated for its binding affinity at human muscarinic receptor m2 by displacement of [3H]NMS radioligand using membranes from transfected chinese hamster ovarian cell at 100 nM concentration
[11] = target: T8, Muscarinic acetylcholine receptor M5 (Homo sapiens) (UniProt P08912); assay: Compound was evaluated for its binding affinity at human muscarinic receptor Hm5 by the displacement of [3H]NMS radioligand using membranes from transfected chinese hamster ovarian cell at 100 nM concentration
T8 sequence (whole entry): T2 sequence (P08912 whole entry)

[12] = target: T1, Muscarinic acetylcholine receptor M3; assay: Compound was evaluated for its binding affinity at human muscarinic receptor Hm3 by the displacement of [3H]NMS radioligand using membranes from transfected chinese hamster ovarian cell at 1000 nM concentration
Target sequence in this assay (P20309 whole entry, looked up): as the sequence (P20309 whole entry) above

[13] = target: T8, Muscarinic acetylcholine receptor M5 (Homo sapiens); assay: Compound was evaluated for its binding affinity at human muscarinic receptor Hm5 by the displacement of [3H]-NMS radioligand using membranes from transfected chinese hamster ovarian cell at 1000 nM concentration

Row | Compound | IC50 [1] | IC50 [2] | IC50 [3] | IC50 [4] | IC50 [5] | inhibition [6] | inhibition [7] | inhibition [8] | inhibition [9] | inhibition [10] | inhibition [11] | inhibition [12] | inhibition [13]
1 | CCOC(=O)c1c(C)[nH]c2ccc3c(c12)CN1CCc2cc(OCC)ccc2C1O3 (stereo unspecified) | 2.63 µM | 8.62 µM | 1.62 µM | 4.25 µM | 2.56 µM |  |  |  |  |  |  |  | 
2 | CCOC(=O)c1c[nH]c2ccc3c(c12)CN1CCc2cc(OC)ccc2C1O3 (stereo unspecified) | 3.7 µM | 6 µM | 0.334 µM | 5.62 µM | 4.56 µM |  |  |  |  |  |  |  | 
3 | CCOC(=O)c1c(C)[nH]c2ccc3c(c12)CN1CCc2cccc(C)c2C1O3 (stereo unspecified) | 2.83 µM | 1.73 µM | 1.47 µM | 6.11 µM | < 1 µM |  |  |  |  |  |  |  | 
4 | COc1ccc2c(c1)CCN1Cc3c(ccc4[nH]c(C)c(C(=O)OC(C)C)c34)OC21 (stereo unspecified) | 2.82 µM | 4.74 µM | 2.05 µM | 4.06 µM | 2.64 µM |  |  |  |  |  |  |  | 
5 | CC1OC(=O)[C@H]2C[C@H]3CCCC[C@@H]3[C@@H](/C=C/C3CCC[C@H](C)N3C)[C@@H]12 (single isomer, unassigned) [HIMBACINE] |  | 1.02 µM |  | 0.548 µM | 0.0175 µM |  |  |  |  |  |  |  | 
6 | CCOC(=O)c1c(C)[nH]c2ccc3c(c12)CN1CCc2cc(Oc4ccccc4)ccc2C1O3 (stereo unspecified) | 3.07 µM | 2.03 µM | 2.63 µM | 1.96 µM | 1.65 µM |  |  |  |  |  |  |  | 
7 | CCOC(=O)c1c(C)[nH]c2ccc3c(c12)C[N+]1(C)CCc2cc(OC)ccc2C1O3 (stereo unspecified) |  |  |  |  |  | 19.9% | 0% | 29.9% | 0% | 14.7% | 0.9% | 0% | 1.6%
8 | COC(=O)c1c(C)[nH]c2ccc3c(c12)CN1CCc2cc(OC)ccc2C1O3 (stereo unspecified) | 3.39 µM | 4.09 µM | 0.501 µM | 3.79 µM | 13.1 µM |  |  |  |  |  |  |  | 
9 | COc1ccc2c(c1)CCN1Cc3c(ccc4[nH]c(C)cc34)OC21 (stereo unspecified) | 15.3 µM | 18 µM | 9.74 µM | 10.8 µM | 1.15 µM |  |  |  |  |  |  |  | 
10 | COC(=O)c1c(C)[nH]c2ccc3c(c12)CN1CCc2ccccc2C1O3 (stereo unspecified) | 12.6 µM | 5.76 µM | 9.93 µM | 7.12 µM | 4.66 µM |  |  |  |  |  |  |  | 
11 | CCOC(=O)c1c[nH]c2ccc3c(c12)CN1CCc2cc(OC)c(OC)cc2C1O3 (stereo unspecified) | 10.3 µM | 47.4 µM | 1.5 µM | 8.22 µM | 7.7 µM |  |  |  |  |  |  |  | 
12 | CCOC(=O)c1c(C)[nH]c2ccc3c(c12)CN1CCc2cc(OC)c(OC)cc2C1O3 (stereo unspecified) | 1.62 µM | 26.6 µM | 0.301 µM | 12.9 µM | 9.34 µM |  |  |  |  |  |  |  | 
13 | COc1cc2c(cc1OC)C1Oc3ccc4[nH]c(C)cc4c3CN1CC2 (stereo unspecified) | 32.6 µM | 43.5 µM | 4.74 µM | 32.7 µM | 14.7 µM |  |  |  |  |  |  |  | 
14 | CCCOC(=O)c1c(C)[nH]c2ccc3c(c12)CN1CCc2cc(OC)ccc2C1O3 (stereo unspecified) | 1.48 µM | 3.81 µM | 0.36 µM | 1.96 µM | 1.91 µM |  |  |  |  |  |  |  | 
15 | CCOC(=O)c1c(C)[nH]c2ccc3c(c12)CN1CCc2ccccc2C1O3 (stereo unspecified) | 5.49 µM | 4.19 µM | 3.71 µM | 5.01 µM | 2.68 µM |  |  |  |  |  |  |  | 
16 | CCOC(=O)c1c(C)[nH]c2ccc3c(c12)CN1CCc2ccc(OC)cc2C1O3 (stereo unspecified) | 10.8 µM | 8.21 µM | 6.03 µM | 9.02 µM | 3 µM |  |  |  |  |  |  |  | 
17 | CCOC(=O)c1c(C)[nH]c2ccc3c(c12)CN1CCc2cc(OC)ccc2C1O3 (stereo unspecified) | 0.95 µM | 7.41 µM | 0.0907 µM | 6.56 µM | 3.44 µM |  |  |  |  |  |  |  | 
18 | CCOC(=O)c1c(C)[nH]c2ccc3c(c12)CN1CCc2cc(C)ccc2C1O3 (stereo unspecified) | 2.72 µM | 3.88 µM | 0.465 µM | 3.28 µM | 9.52 µM |  |  |  |  |  |  |  | 
